# Measurements as given in EP0481744B1, “Piperazine derivatives” (JOHN WYETH & BROTHER LIMITED, priority 1990, dated 1992).
# pIC50: −log10 of the molar value.
# Experiments:
# 5HT1A receptor [1] = biological target: T1, 5HT1A receptor (Rattus norvegicus, UniProt P19327); assay: 5-HT1A receptor binding activity in rat hippocampal membrane homogenate; set-up: rat hippocampal membrane homogenate; from tissue; host or cells: rat hippocampus (membrane homogenate)
# T1 sequence (P19327 1-422): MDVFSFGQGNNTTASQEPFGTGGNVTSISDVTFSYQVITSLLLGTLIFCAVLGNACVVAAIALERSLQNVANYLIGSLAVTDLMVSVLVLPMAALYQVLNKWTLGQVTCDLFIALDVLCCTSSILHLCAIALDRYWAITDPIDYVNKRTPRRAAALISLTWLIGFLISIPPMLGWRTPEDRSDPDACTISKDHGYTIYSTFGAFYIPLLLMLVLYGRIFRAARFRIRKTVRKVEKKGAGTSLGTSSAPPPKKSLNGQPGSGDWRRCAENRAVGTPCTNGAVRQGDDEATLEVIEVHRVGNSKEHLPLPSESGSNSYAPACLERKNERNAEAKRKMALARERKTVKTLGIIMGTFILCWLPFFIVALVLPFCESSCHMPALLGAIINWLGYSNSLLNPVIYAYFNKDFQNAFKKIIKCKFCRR
# Experimental: The compounds of the invention were tested for 5-HT1A receptor binding activity in rat hippocampal membrane homogenate by the method of B S Alexander and M D Wood, J Pharm Pharmacol, 1988, 40, 888-891.
# 5HT1A receptor [2] = biological target: T1, 5HT1A receptor; assay: 5HT1A receptor antagonism: antagonism of 8-OH DPAT syndrome in the rat; assay type: in vivo; set-up: (8-OH DPAT) syndrome in the rat; from tissue; host or cells: whole animal (rat), in vivo; conditions: antagonism of 8-hydroxy-2-(di-n-propylamino)-tetralin (8-OH DPAT) syndrome in the rat; s.c.
# Experimental: The compounds were also tested for 5HT1A receptor antagonism activity in a test involving the antagonism of 8-hydroxy-2-(di-n-propylamino)-tetralin (8-OH DPAT) syndrome in the rat. The results are given below
# [3] = test system: mouse exploratory activity; assay: Potential anxiolytic activity: mouse exploratory activity in a two-compartment light/dark box; assay type: in vivo; conditions: s.c.
# Experimental: The compounds were also tested for potential anxiolytic activity by a test procedure measuring mouse exploratory activity in a two-compartment light/dark box based upon the procedure of B Costall et al, Neuropharmacology, 1987, 26, 195-200 and J.N. Crawley et al, Pharmac. Biochem. Behav. 1980, 13, 167-170. The results are given below
Compound,pIC50 (5HT1A receptor [1]),MED (5HT1A receptor [2]),MED [3]
"COc1ccccc1N1CCN(CCC(C(=O)N2CCCCCC2)c2ccccc2)CC1 (single isomer, unassigned) [Compound C, 2,3,4,5,6,7-Hexahydro-1-⁅4-[1-[4-(2-methoxyphenyl)-piperazinyl]]-2-phenylbutyryl⁆-1H-azepine]",9.00,–,–
"COc1ccccc1N1CCN(CCC(C(=O)N2CCCCCC2)c2ccccc2)CC1 (stereo not drawn) [Compound A, 2,3,4,5,6,7-hexahydro-1-{4-[1-[4-(2-methoxyphenyl)-piperazinyl]]-2-phenylbutyryl}-1H-azepine]",8.52,0.03 mg/kg; s.c.,0.03 mg/kg; s.c.
"COc1ccccc1N1CCN(CC(C(=O)N2CCCCCC2)c2ccccc2)CC1 (stereo not drawn) [Compound B, 2,3,4,5,6,7-hexahydro-1-⁅3-⁅1-[4-(2-methoxyphenyl)piperazinyl]⁆-2-phenylpropionyl⁆-1H-azepine, reference compound]",–,0.3 mg/kg; s.c.,1 mg/kg; s.c.
